According to patent US20050049204A1, “Compounds for the treatment of flaviviridae infections” (priority 2003, published 2005):
Where a name gives a salt, the structure may show the parent alone. Read-outs that look alike come from different tables or passages of the source.

Experiments:
[1] = test system: HCV-replicon RNA-containing Huh7 cells (HCV RNA); test: HCV replicon assay: HCV RNA quantified by Q-RT-PCR after 96 h of compound exposure; type: cell-based, hepatitis C virus (HCV); settings: for EC90: read-out: Corrected HCV RNA EC90; for log reduction at 10 µM: read-out: Corrected HCV RNA log10 reduction at 10 μM; for effect on cytoplasmic HCV RNA metabolism: replicon system
Description: (§1) Incubation times differed according to the type of experiment.

[2] = test system: rRNA in HCV-replicon RNA-containing Huh7 cells; test: rRNA levels in HCV replicon cells (cellular toxicity), Q-RT-PCR after 96 h
Description: HCV replicon cells were seeded in the presence of test compound at approximately 10^3 cells per well in a 96-well plate and incubated for 96 hours. rRNA and HCV RNA were quantified by Q-RT-PCR. ●: HCV RNA levels; ◯: rRNA levels; ▾: HCV RNA levels after correction (=subtraction of rRNA) for cellular toxicity. […] The plots shown are the mean results of at least three independent experiments. EC90 values as given in Table 1 are read from the HCV curves corrected for cellular toxicity.
HCV-replicon RNA-containing Huh7 cells (Clone A cells; Apath, LLC, St. Louis, Mo.) were kept in exponential growth in DMEM media (high glucose, no pyruvate) containing 10% fetal bovine serum, 1× non-essential amino acids (100 units/ml), penicillin-streptomycin (100 μg/ml), glutamine (0.292 mg/ml), and G418 (1,000 μg/ml). Antiviral assays were performed in the same medium without G418. […] Cells were seeded in a 6-well plate at 10^5 cells per well. Candidate antiviral compounds were tested as described (Stuyver, et al. “A ribonucleoside analogue that blocks the replication of bovine viral diarrhea and hepatitis C viruses in culture” Antimicrob. Agents Chemother., January 2003, 47 (1), 244-254). Incubation times differed according to the type of experiment. At the end of the incubation step, cells were counted using the trypan-blue exclusion method, and total cellular RNA was isolated (Rneasy 96 kit, Qiagen, CA). Replicon RNA and an internal control (TaqMan Ribosomal RNA Control Reagents, Applied Biosystems, CA) were amplified in a single-step, multiplex RT-PCR protocol, as recommended by the manufacturer and as described (Stuyver, et al. “A ribonucleoside analogue that blocks the replication of bovine viral diarrhea and hepatitis C viruses in culture” Antimicrob. Agents Chemother., January 2003, 47 (1), 244-254).
Replicon cells were incubated in the absence or presence of these anti-metabolites for 96 hours, after which intracellular rRNA and HCV RNA levels were quantified (Table 1).

[3] = test system: HCV replicon RNA in Huh7 cells; test: Reversal studies with natural nucleosides: HCV RNA; type: cell-based, hepatitis C virus (HCV); settings: for log10 reduction HCV: no nucleoside
Description: as §1
(§2) Cells were incubated with the test compound and, simultaneously, the natural ribo- or 2′-deoxy nucleosides (adenosine, guanosine (G), cytidine (C), uridine (U), 2′-deoxycytidine (dC), 2′-deoxyuridine, thymidine, 2′-deoxyguanosine (dG), and 2′-deoxyadenosine) (Table 2).

[4] = test system: rRNA in HCV replicon Huh7 cells; test: Reversal studies with natural nucleosides: rRNA; type: cell-based; settings: for log10 reduction rRNA: no nucleoside
Description: as §1, §2

[5] = test system: HCV replicon-containing Huh7 cell line; test: Dynamics of replicon cell growth (cell count) over a 7-day period; settings: seven-day assay, tested at approximately EC90 value
[6] = 96 h, corrected by subtraction of rRNA
[7] = Hepatitis C virus, Huh-7, 96 h, read from HCV curves corrected for rRNA reduction
[8] = 100 μM, 96 h, corrected by subtraction of rRNA

Structure (SMILES): COc1c(C)c2c(c(O)c1C/C=C(\C)CCC(=O)O)C(=O)OC2 [MPA, mycophenolic acid]
- Corrected HCV RNA log10 reduction at 10 μM [1, 6]: 0.22 ± 0.01 log10
- log reduction at 100 µM ([1]; Hepatitis C virus, Huh-7, 96 h, read-out: Corrected HCV RNA log10 reduction at 100 μM): 0.07 ± 0.47
- EC90 [1, 7]: > 100 µM
- Log10 RNA reduction (100 μM) rRNA [2]: 1.09 ± 0.28 log10

Structure (SMILES): CC(=O)N(O)CCCCCNC(=O)CCC(=O)N(O)CCCCCNC(=O)CCC(=O)N(O)CCCCCN [Deferoxamine, deferoxamine mesylate]
- log reduction at 10 µM ([1]; Hepatitis C virus, Huh-7, 96 h): 0.17 ± 0.11
- log reduction at 100 µM ([1]; Hepatitis C virus, Huh-7, 100 μM, 96 h, corrected by subtraction of rRNA, read-out: Corrected HCV RNA log10 reduction at 100 μM): 0.08 ± 0.03
- log reduction at 100 µM ([1]; Hepatitis C virus, Huh-7, 100 μM, 96 h, read-out: Log10 RNA reduction (100 μM) HCV): 1 ± 0.06
- EC90 [1, 7]: > 100 µM
- specific inhibition of the replicon ([1]; RNR inhibitors tested): none
- Log10 RNA reduction (100 μM) rRNA [2]: 0.92 ± 0.08 log10

Structure (SMILES): NC(=O)c1csc([C@@H]2O[C@H](CO)[C@@H](O)[C@H]2O)n1 [Tiazofurin, tiazofurin]
- Log10 RNA reduction (100 μM) HCV ([1]; 100 μM, 96 h): 0.86 ± 0.27 log10
- Corrected HCV RNA log10 reduction at 100 μM [1, 8]: −0.13 ± 0.37 log10
- EC90 ([1]; Hepatitis C virus, Huh-7, 96 h): > 100 µM
- log reduction at 10 µM ([1]; Hepatitis C virus, Huh-7, 96 h): 0.04 ± 0.1
- Log10 RNA reduction (100 μM) rRNA [2]: 0.99 ± 0.35 log10

Structure (SMILES): O=C(O)C[C@H](NC(=O)CP(=O)(O)O)C(=O)O [PALA, N-(phosphonoacetyl)-L-aspartate]
- Corrected HCV RNA log10 reduction at 10 μM [1, 6]: 1.18 ± 0.11 log10
- Corrected HCV RNA log10 reduction at 100 μM [1, 8]: 1.30 ± 0.05 log10
- EC90 ([1]; Hepatitis C virus, Huh-7, 96 h): 7.6 µM
- Log10 RNA reduction (100 μM) rRNA [2]: 0.48 ± 0.02 log10
- log10 reduction HCV including natural nucleoside ([3]; 100 μM + U at 50 μM): 0.14 ± 0.03 log10
- log10 reduction HCV ([3]; 100 μM): 1.77 ± 0.02 log10
- log10 reduction rRNA including natural nucleoside ([4]; 100 μM + U at 50 μM): −0.13 ± 0.10 log10
- log10 reduction rRNA ([4]; 100 μM): 0.48 ± 0.02 log10
- effect on cell growth [5]: minimal effect

Structure (SMILES): Nc1ccn([C@@H]2C=C(CO)[C@@H](O)[C@H]2O)c(=O)n1 [CPE-C, cyclopentenyl-cytosine]
- EC90 [1, 7]: 2.5 µM
- Log10 RNA reduction (100 μM) rRNA [2]: 1.21 ± 0.16 log10
- log10 reduction HCV including natural nucleoside ([3]; 2 μM + C at 50 μM): 0.30 ± 0.06 log10
- log10 reduction HCV including natural nucleoside ([3]; 2 μM + U at 50 μM): 0.58 ± 0.04 log10
- log10 reduction HCV ([3]; 2 μM): 1.76 ± 0.04 log10
- log10 reduction rRNA including natural nucleoside ([4]; 2 μM + C at 50 μM): −0.04 ± 0.01 log10
- log10 reduction rRNA including natural nucleoside ([4]; 2 μM + U at 50 μM): 0.32 ± 0.03 log10
- log10 reduction rRNA ([4]; 2 μM): 0.99 ± 0.04 log10

Structure (SMILES): Nc1ccn([C@@H]2O[C@H](CO)[C@@H](O)C2(F)F)c(=O)n1 [dFdC, difluorodeoxycytidine]
- Corrected HCV RNA log10 reduction at 10 μM [1, 6]: 1.32 ± 0.08 log10
- EC90 ([1]; Hepatitis C virus, Huh-7, 96 h): 0.17 µM
- Corrected HCV RNA log10 reduction ([1]; dFdC tested at 50 μM, 96 h, corrected for rRNA): 1.29 ± 0.11 log10
- Log10 RNA reduction rRNA ([2]; dFdC tested at 50 μM): 0.59 ± 0.05 log10
- log10 reduction HCV including natural nucleoside ([3]; 1 μM + dC at 50 μM): 0.06 ± 0.00 log10
- log10 reduction HCV ([3]; 1 μM): 1.89 ± 0.07 log10
- log10 reduction rRNA including natural nucleoside ([4]; 1 μM + dC at 50 μM): 0.07 ± 0.02 log10
- log10 reduction rRNA ([4]; 1 μM): 0.52 ± 0.03 log10

Structure (SMILES): O=c1cnn([C@@H]2O[C@H](CO)[C@@H](O)[C@H]2O)c(=S)[nH]1 [2-thio-6-azauridine]
- Corrected HCV RNA log10 reduction at 10 μM [1, 6]: 0.12 ± 0.10 log10
- Log10 RNA reduction (100 μM) HCV ([1]; 100 μM, 96 h): 0.16 ± 0.04 log10
- Corrected HCV RNA log10 reduction at 100 μM [1, 8]: 0.19 ± 0.09 log10
- EC90 ([1]; 96 h, read from HCV curves corrected for rRNA reduction): > 100 µM
- effect on cytoplasmic HCV RNA metabolism [1]: little effect
- Log10 RNA reduction (100 μM) rRNA [2]: −0.02 ± 0.12 log10

Structure (SMILES): O=c1cnn([C@@H]2O[C@H](CO)[C@@H](O)[C@H]2O)c(=O)[nH]1 [6-aza uridine, 6-aza-uridine]
- EC90 [1, 7]: > 100 µM
- effect on cytoplasmic HCV RNA metabolism [1]: little effect
- Log10 RNA reduction (100 μM) rRNA [2]: 0.61 ± 0.18 log10

Structure (SMILES): CN(Cc1cnc2nc(N)nc(N)c2n1)c1ccc(C(=O)N[C@@H](CCC(=O)O)C(=O)O)cc1 [Methotrexate, methotrexate]
- Corrected HCV RNA log10 reduction at 10 μM [1, 6]: 0.15 ± 0.01 log10
- Corrected HCV RNA log10 reduction at 100 μM [1, 8]: 0.11 ± 0.09 log10
- EC90 [1, 7]: > 100 µM
- Log10 RNA reduction (100 μM) rRNA [2]: 0.07 ± 0.10 log10
